Key:
Test in all cases: KINOMEscan
Assay type in all cases: binding
Details in all cases: 2000 nM
MAP3K2 = MAP3K2 (Homo sapiens, UniProt Q9Y2U5)
LOK = target: T1, LOK (Homo sapiens, UniProt O94804)
T1 construct: purchased KINOMEscan (DiscoveRx) panel service

TESK1 = target: T2, TESK1 (Homo sapiens, UniProt Q15569)
T2 construct: DNA label (for qPCR read-out); purchased DiscoveRx (KINOMEscan scanMAX panel, contract assay)

ACVR2A = target: T3, ACVR2A (Homo sapiens, UniProt P27037)
T3 construct: purchased DiscoveRx (KINOMEscan scanMAX panel, service)

MEK1 = target: T4, MEK1 (Homo sapiens, UniProt Q02750)
T4 construct: purchased DiscoveRx (KINOMEscan scanMAX panel, service)

AKT1 = target: T5, AKT1 (Homo sapiens, UniProt P31749)
T5 construct: purchased DiscoveRx (KINOMEscan scanMAX panel, service)
T5 sequence (P31749 whole entry): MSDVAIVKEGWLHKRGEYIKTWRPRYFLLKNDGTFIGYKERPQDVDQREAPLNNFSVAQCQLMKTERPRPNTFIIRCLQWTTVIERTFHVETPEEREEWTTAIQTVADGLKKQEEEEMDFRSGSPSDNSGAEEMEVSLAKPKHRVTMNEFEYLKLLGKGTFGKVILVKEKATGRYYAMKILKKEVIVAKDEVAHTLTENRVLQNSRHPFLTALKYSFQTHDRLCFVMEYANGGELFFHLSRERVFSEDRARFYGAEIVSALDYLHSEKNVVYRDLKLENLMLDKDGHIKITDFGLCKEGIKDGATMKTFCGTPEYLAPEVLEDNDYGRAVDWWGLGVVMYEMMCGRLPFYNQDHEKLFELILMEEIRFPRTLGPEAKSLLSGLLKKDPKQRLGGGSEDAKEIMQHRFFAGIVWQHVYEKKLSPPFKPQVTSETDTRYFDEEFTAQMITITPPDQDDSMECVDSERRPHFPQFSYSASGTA

WNK3 = target: T6, WNK3 (Homo sapiens, UniProt Q9BYP7)
T6 construct: purchased KINOMEscan (DiscoveRx) panel service
T6 sequence (Q9BYP7 whole entry): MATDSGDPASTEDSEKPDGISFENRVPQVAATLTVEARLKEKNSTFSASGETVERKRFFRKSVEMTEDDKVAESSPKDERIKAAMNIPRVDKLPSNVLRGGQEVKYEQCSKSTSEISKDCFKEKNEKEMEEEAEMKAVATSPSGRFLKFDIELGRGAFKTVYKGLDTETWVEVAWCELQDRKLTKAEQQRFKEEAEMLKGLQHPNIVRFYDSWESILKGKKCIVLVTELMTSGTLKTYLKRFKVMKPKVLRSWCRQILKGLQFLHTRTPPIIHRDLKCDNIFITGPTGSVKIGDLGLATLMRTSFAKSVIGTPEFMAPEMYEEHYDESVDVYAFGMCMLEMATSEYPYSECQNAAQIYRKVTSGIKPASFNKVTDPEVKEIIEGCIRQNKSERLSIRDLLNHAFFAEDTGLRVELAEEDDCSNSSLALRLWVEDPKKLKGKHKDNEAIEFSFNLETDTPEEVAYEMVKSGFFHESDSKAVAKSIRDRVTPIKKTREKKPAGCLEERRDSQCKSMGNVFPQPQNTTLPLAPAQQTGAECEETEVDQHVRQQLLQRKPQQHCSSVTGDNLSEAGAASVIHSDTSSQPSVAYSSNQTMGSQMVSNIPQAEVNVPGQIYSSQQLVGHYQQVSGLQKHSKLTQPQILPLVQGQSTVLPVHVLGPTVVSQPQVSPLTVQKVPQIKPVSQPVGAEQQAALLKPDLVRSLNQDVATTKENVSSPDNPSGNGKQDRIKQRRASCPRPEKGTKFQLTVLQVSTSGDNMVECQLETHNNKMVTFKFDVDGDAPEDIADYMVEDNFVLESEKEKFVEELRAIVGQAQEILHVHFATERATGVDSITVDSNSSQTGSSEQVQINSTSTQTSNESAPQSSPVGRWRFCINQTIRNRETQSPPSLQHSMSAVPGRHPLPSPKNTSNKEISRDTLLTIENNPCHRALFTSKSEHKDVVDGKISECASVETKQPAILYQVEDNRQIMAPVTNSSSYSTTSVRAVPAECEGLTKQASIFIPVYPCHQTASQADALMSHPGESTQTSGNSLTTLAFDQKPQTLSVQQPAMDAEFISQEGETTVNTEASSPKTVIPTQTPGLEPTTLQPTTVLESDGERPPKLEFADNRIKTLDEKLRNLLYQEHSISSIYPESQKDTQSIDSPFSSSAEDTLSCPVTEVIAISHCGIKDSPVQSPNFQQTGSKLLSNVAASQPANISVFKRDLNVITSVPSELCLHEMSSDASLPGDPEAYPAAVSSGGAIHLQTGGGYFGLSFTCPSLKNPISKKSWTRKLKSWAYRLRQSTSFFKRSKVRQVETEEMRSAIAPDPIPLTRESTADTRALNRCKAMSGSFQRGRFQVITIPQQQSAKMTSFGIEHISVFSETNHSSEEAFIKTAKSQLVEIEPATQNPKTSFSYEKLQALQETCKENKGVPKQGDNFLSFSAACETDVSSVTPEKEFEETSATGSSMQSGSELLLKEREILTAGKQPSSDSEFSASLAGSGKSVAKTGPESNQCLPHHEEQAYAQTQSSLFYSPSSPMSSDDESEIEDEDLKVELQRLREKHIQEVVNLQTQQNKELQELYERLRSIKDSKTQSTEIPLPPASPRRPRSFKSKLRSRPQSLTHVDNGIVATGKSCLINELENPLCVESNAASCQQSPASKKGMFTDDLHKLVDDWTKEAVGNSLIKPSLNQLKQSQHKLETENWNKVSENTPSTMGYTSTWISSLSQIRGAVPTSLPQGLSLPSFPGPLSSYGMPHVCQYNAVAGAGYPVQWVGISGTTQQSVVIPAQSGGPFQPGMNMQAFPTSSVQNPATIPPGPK

[1] = target: T7, JAK2(JH1domain-catalytic) (Homo sapiens, UniProt O60674)
T7 construct: JAK2(JH1domain-catalytic); DNA label (for qPCR read-out); purchased DiscoveRx (KINOMEscan scanMAX panel)

ERK5 = target: T8, ERK5 (Homo sapiens, UniProt Q13164)
T8 construct: DNA label (qPCR read-out); purchased DiscoveRx (KINOMEscan ScanMAX panel)

ABL1-nonphosphorylated = ABL1-nonphosphorylated (Homo sapiens, UniProt P00519)
GRK1 = target: T9, GRK1 (Homo sapiens, UniProt Q15835)
T9 construct: purchased KINOMEscan (DiscoveRx)

MELK = target: T10, MELK (Homo sapiens, UniProt Q14680)
T10 construct: purchased DiscoveRx (KINOMEscan scanMAX panel, service)

PAK2 = target: T11, PAK2 (Homo sapiens, UniProt Q13177)
T11 construct: purchased DiscoverX (KINOMEscan service)

ABL2 = target: T12, ABL2 (Homo sapiens, UniProt P42684)
T12 construct: purchased DiscoveRx (KINOMEscan scanMAX panel, service)

[2] = target: T13, RSK3(Kin.Dom.2-C-terminal) (Homo sapiens, UniProt Q15349)
T13 construct: RSK3(Kin.Dom.2); purchased DiscoveRx (KINOMEscan scanMAX panel)
T13 sequence (Q15349 415-672 limits assumed): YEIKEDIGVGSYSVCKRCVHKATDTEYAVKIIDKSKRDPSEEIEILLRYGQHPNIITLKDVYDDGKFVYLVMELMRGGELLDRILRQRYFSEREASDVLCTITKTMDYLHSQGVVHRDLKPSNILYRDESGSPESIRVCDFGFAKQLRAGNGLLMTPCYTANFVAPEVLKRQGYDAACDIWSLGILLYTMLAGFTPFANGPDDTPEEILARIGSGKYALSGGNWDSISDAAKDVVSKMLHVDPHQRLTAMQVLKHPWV

EPHB2 = target: T14, EPHB2 (Homo sapiens, UniProt P29323)
T14 construct: purchased DiscoveRx (KINOMEscan scanMAX panel)

MST2 = target: T15, MST2 (Homo sapiens, UniProt Q13188)
T15 construct: DNA label (for qPCR read-out); purchased KINOMEscan scanMAX panel (DiscoveRx)

MAP3K3 = MAP3K3 (Homo sapiens, UniProt Q99759)
JNK3 = target: T16, JNK3 (Homo sapiens, UniProt P53779)
T16 construct: DNA label (for qPCR read-out); purchased DiscoveRx (KINOMEscan scanMAX panel)

CSNK1D = target: T17, CSNK1D (Homo sapiens, UniProt P48730)
T17 construct: DNA label (qPCR read-out); purchased DiscoverX (assay service)

[3] = target: T18, JAK1(JH1domain-catalytic) (Homo sapiens, UniProt P23458)
T18 construct: JAK1(JH1domain-catalytic); DNA label (qPCR read-out); purchased KINOMEscan (DiscoveRx) ScanMAX panel

TSSK3 = target: T19, TSSK3 (Homo sapiens, UniProt Q96PN8)
T19 construct: DNA label (for qPCR read-out); purchased DiscoveRx (KINOMEscan scanMAX panel)

AURKC = target: T20, AURKC (Homo sapiens, UniProt Q9UQB9)
T20 construct: DNA label (qPCR read-out); purchased KINOMEscan scanMAX panel (DiscoveRx)

PRKG2 = target: T21, PRKG2 (Homo sapiens, UniProt Q13237)
T21 construct: purchased DiscoveRx (KINOMEscan scanMAX panel)

TLK2 = target: T22, TLK2 (Homo sapiens, UniProt Q86UE8)
T22 construct: DNA label (qPCR read-out); purchased KINOMEscan (DiscoveRx) ScanMAX panel

MTOR = target: T23, MTOR (Homo sapiens, UniProt P42345)
T23 construct: DNA label (for qPCR read-out); purchased KINOMEscan scanMAX panel (DiscoveRx)

PIP5K2C = target: T24, PIP5K2C (Homo sapiens, UniProt Q8TBX8)
T24 construct: DNA label (qPCR read-out); purchased KINOMEscan (DiscoveRx) panel

FES = target: T25, FES (Homo sapiens, UniProt P07332)
T25 construct: purchased DiscoveRx (KINOMEscan scanMAX panel)
T25 sequence (P07332 whole entry): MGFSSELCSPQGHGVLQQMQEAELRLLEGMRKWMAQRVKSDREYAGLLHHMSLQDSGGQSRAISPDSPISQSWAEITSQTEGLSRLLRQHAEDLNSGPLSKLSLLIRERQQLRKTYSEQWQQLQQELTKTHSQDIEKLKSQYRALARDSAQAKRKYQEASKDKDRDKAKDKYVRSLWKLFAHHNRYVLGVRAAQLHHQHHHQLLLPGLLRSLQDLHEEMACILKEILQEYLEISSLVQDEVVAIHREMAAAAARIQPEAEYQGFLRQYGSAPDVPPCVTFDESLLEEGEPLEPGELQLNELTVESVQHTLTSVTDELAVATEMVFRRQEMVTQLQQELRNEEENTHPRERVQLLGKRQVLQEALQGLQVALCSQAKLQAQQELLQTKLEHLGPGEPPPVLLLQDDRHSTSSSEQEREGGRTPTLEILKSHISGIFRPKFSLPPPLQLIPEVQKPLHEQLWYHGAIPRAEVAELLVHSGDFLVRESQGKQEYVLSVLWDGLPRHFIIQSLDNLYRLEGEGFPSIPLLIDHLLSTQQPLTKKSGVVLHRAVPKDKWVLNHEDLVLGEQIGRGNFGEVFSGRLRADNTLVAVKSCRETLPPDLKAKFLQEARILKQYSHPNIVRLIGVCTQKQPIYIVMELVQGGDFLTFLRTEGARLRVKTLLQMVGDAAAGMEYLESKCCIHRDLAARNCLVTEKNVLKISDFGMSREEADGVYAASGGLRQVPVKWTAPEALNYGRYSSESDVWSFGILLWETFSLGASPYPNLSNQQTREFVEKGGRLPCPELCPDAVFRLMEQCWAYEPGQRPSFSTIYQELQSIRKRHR

DAPK3 = target: T26, DAPK3 (Homo sapiens, UniProt O43293)
T26 construct: DNA label; purchased DiscoveRx (KINOMEscan scanMAX panel)

MET(M1250T) = target: T27, MET(M1250T) (Homo sapiens, UniProt P08581, M1250T)
T27 construct: purchased DiscoveRx (KINOMEscan scanMAX panel, service)

PIK4CB = target: T28, PIK4CB (Homo sapiens, UniProt Q9UBF8)
T28 construct: DNA label; purchased DiscoveRx (KINOMEscan scanMAX panel)

MEK2 = target: T29, MEK2 (Homo sapiens, UniProt P36507)
T29 construct: purchased DiscoveRx (KINOMEscan scanMAX panel, service)
T29 sequence (P36507 whole entry): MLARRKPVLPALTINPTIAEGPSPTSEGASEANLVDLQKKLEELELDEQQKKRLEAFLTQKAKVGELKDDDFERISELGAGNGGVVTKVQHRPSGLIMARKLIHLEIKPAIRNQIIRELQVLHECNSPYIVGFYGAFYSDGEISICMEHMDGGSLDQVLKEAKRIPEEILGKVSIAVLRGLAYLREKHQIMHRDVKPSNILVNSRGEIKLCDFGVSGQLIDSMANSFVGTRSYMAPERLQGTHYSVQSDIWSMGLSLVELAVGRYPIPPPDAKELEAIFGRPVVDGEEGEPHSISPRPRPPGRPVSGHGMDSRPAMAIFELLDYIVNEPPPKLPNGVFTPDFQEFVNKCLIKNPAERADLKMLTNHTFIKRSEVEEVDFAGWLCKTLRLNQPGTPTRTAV

CDKL1 = target: T30, CDKL1 (Homo sapiens, UniProt Q00532)
T30 construct: purchased DiscoverX (KINOMEscan service)
T30 sequence (Q00532 whole entry): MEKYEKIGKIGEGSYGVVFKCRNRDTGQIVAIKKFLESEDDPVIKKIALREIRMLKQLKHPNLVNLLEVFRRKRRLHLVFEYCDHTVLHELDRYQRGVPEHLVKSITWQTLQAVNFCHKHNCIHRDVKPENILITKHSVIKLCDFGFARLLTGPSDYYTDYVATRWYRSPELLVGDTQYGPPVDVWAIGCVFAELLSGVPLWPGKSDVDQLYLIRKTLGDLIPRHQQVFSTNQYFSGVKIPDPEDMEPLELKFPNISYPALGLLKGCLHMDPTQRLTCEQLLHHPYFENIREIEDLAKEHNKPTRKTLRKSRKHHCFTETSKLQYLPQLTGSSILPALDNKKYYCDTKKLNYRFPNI

STK39 = target: T31, STK39 (Homo sapiens, UniProt Q9UEW8)
T31 construct: DNA label (for qPCR read-out); purchased DiscoveRx (KINOMEscan scanMAX panel, contract assay)

TRKA = target: T32, TRKA (Homo sapiens, UniProt P04629)
T32 construct: DNA label (qPCR read-out); purchased KINOMEscan (DiscoveRx) ScanMAX panel
T32 sequence (P04629 33-796): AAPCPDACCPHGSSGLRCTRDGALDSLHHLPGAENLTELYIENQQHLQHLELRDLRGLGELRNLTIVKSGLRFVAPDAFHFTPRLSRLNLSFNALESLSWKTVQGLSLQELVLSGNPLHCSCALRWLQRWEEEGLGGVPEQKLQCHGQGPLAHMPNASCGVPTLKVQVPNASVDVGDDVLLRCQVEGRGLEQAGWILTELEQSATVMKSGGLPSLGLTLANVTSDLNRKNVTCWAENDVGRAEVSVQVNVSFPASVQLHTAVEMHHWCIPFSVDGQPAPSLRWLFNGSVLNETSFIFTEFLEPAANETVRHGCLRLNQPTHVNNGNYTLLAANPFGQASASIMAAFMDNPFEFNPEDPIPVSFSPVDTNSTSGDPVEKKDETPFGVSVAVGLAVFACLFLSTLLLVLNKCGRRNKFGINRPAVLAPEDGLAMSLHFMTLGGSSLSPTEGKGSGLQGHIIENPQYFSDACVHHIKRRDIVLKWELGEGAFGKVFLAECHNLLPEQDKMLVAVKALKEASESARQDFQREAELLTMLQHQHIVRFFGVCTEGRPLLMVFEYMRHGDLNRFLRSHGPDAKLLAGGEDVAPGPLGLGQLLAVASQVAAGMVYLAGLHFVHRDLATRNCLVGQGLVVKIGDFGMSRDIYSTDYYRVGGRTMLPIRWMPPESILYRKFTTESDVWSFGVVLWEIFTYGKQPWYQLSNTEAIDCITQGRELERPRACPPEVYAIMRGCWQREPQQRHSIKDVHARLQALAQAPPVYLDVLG

Row | Compound | % Ctrl (MAP3K2) [% Ctrl] | % Ctrl (LOK) [% Ctrl] | % Ctrl (TESK1) [% Ctrl] | % Ctrl (ACVR2A) [% Ctrl] | % Ctrl (MEK1) [% Ctrl] | % Ctrl (AKT1) [% Ctrl] | % Ctrl (WNK3) [% Ctrl] | % Ctrl [1] [% Ctrl] | % Ctrl (ERK5) [% Ctrl] | % Ctrl (ABL1-nonphosphorylated) [% Ctrl] | % Ctrl (GRK1) [% Ctrl] | % Ctrl (MELK) [% Ctrl] | % Ctrl (PAK2) [% Ctrl] | % Ctrl (ABL2) [% Ctrl] | % Ctrl [2] [% Ctrl] | % Ctrl (EPHB2) [% Ctrl] | % Ctrl (MST2) [% Ctrl] | % Ctrl (MAP3K3) [% Ctrl] | % Ctrl (JNK3) [% Ctrl] | % Ctrl (CSNK1D) [% Ctrl] | further results
1 | [2H]C([2H])([2H])N(C(=O)c1ccc(N2CCCN(c3ccnc4sc(C(N)=O)c(N)c34)CC2)cc1)C([2H])([2H])[2H] [15u_D6, 3-amino-4-(4-(4-(bis(methyl-d3)carbamoyl)phenyl)-1,4-diazepan-1-yl)thieno[2,3-b]pyridine-2-carboxamide] | 86 | 69 | 100 | 92 | 83 | 100 | 100 | 93 | 98 | 78 | 81 | 84 | 94 | 91 | 89 | 95 | 84 | 72 | 44 | 22 | % Ctrl [3]: 82 % Ctrl; % Ctrl (TSSK3): 100 % Ctrl; % Ctrl (AURKC): 100 % Ctrl; % Ctrl (PRKG2): 90 % Ctrl; % Ctrl (TLK2): 97 % Ctrl; % Ctrl (MTOR): 97 % Ctrl; % Ctrl (PIP5K2C): 64 % Ctrl; % Ctrl (FES): 100 % Ctrl; % Ctrl (DAPK3): 83 % Ctrl; % Ctrl (MET(M1250T)): 96 % Ctrl; % Ctrl (PIK4CB): 33 % Ctrl; % Ctrl (MEK2): 82 % Ctrl; % Ctrl (CDKL1): 92 % Ctrl; % Ctrl (STK39): 94 % Ctrl; % Ctrl (TRKA): 78 % Ctrl
2 | CN(C)C(=O)c1ccc(N2CCCN(c3ccnc4sc(C(N)=O)c(N)c34)CC2)cc1 [15u, 3-amino-4-(4-(4-(dimethylcarbamoyl)phenyl)-1,4-diazepan-1-yl)thieno[2,3-b]pyridine-2-carboxamide] | 98 | 84 | 83 | 95 | 93 | 100 | 97 | 100 | 59 | 95 | 98 | 75 | 91 | 85 | 100 | 99 | 100 | 100 | 91 | 20 | % Ctrl [3]: 57 % Ctrl; % Ctrl (TSSK3): 93 % Ctrl; % Ctrl (AURKC): 100 % Ctrl; % Ctrl (PRKG2): 98 % Ctrl; % Ctrl (TLK2): 100 % Ctrl; % Ctrl (MTOR): 88 % Ctrl; % Ctrl (PIP5K2C): 80 % Ctrl; % Ctrl (FES): 100 % Ctrl; % Ctrl (DAPK3): 81 % Ctrl; % Ctrl (MET(M1250T)): 100 % Ctrl; % Ctrl (PIK4CB): 65 % Ctrl; % Ctrl (MEK2): 88 % Ctrl; % Ctrl (CDKL1): 100 % Ctrl; % Ctrl (STK39): 93 % Ctrl; % Ctrl (TRKA): 93 % Ctrl

From patent publication US11572369B2, “Bicyclic pyridine compositions and methods of using the same for cancer therapy” (UNIVERSITY OF SOUTH CAROLINA, priority 2019, dated 2023)
